Measurements taken from ChEMBL document CHEMBL3044858, “Design, synthesis, and biological evaluation of new 4-thiazolidinone derivatives substituted with benzimidazole ring as potential chemotherapeutic agents” (Med Chem Res, 2013).
pIC50: −log10 of the molar value. The source made the active and inactive calls. The rule behind the calls is not given here.

Assays:
MCF7 [1] = experiment: Anticancer activity against Homo sapiens (human) MCF7 cells assessed as growth inhibition after 48 hr by SRB assay; type: functional, cell-based; conditions: MCF7, 48 h
[2] = biological target: T1, Arylamine N-acetyltransferase 1 (Homo sapiens, UniProt P18440); experiment: Inhibition of Homo sapiens (human) arylamine N-acetyltransferase 1
T1 sequence (P18440 whole entry): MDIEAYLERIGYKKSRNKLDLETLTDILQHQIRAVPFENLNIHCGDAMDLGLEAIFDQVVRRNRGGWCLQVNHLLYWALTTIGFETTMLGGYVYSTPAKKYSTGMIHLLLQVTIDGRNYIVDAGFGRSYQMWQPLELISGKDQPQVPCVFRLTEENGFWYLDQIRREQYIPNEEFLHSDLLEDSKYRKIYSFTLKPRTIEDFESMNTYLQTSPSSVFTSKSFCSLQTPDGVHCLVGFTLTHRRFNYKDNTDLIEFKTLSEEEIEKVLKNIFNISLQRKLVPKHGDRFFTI

[3] = Cytotoxicity against lymphocytes in Homo sapiens (human) whole blood assessed as inhibition of cell viability after 24 to 96 hr by neutral red uptake assay; type: tissue-based; conditions: Lymphocyte
Blood = experiment: Toxicity in Homo sapiens (human) blood assessed as hemolysis
Hepatitis C virus [4] = experiment: Antiviral activity against Hepatitis C virus infected HepG2 cells assessed as disappearance of (+) and or (-) strands of viral RNA at 0.611 uM after 96 hr by qualitative RT-PCR analysis; type: functional, organism-based; conditions: Hepacivirus hominis
Hepatitis C virus [5] = experiment: Antiviral activity against Hepatitis C virus isolated from PBMC of infected patient assessed as disappearance of (+) and or (-) strands of viral RNA at 0.611 uM after 96 hr by qualitative RT-PCR analysis; type: functional, organism-based; conditions: Hepacivirus hominis
MCF7 [6] = experiment: Anticancer activity against Homo sapiens (human) MCF7 cells assessed as cell growth at 100 uM after 48 hr by SRB assay; type: functional, cell-based; conditions: MCF7, 48 h; for growth at 100 µM: read-out: Activity
HepG2 [7] = experiment: Anticancer activity against Homo sapiens (human) HepG2 cells assessed as cell growth at 100 uM after 48 hr by SRB assay; type: functional, cell-based; conditions: HepG2, 48 h; for growth at 100 µM: read-out: Activity
HCT-116 [8] = experiment: Anticancer activity against Homo sapiens (human) HCT116 cells assessed as cell growth at 100 uM after 48 hr by SRB assay; type: functional, cell-based; conditions: HCT-116, 48 h; for growth at 100 µM: read-out: Activity
Hepatitis C virus [9] = experiment: Antiviral activity against Hepatitis C virus infected HepG2 cells assessed as disappearance of (+) and or (-) strands of viral RNA at 0.647 uM after 96 hr by qualitative RT-PCR analysis; type: functional, organism-based; conditions: Hepacivirus hominis
Hepatitis C virus [10] = experiment: Antiviral activity against Hepatitis C virus isolated from PBMC of infected patient assessed as disappearance of (+) and or (-) strands of viral RNA at 0.647 uM after 96 hr by qualitative RT-PCR analysis; type: functional, organism-based; conditions: Hepacivirus hominis
Hepatitis C virus [11] = experiment: Antiviral activity against Hepatitis C virus isolated from PBMC of infected patient assessed as disappearance of (+) and or (-) strands of viral RNA at 1.116 uM after 96 hr by qualitative RT-PCR analysis; type: functional, organism-based; conditions: Hepacivirus hominis
Hepatitis C virus [12] = experiment: Antiviral activity against Hepatitis C virus infected HepG2 cells assessed as disappearance of (+) and or (-) strands of viral RNA at 1.116 uM after 96 hr by qualitative RT-PCR analysis; type: functional, organism-based; conditions: Hepacivirus hominis
Hepatitis C virus [13] = experiment: Antiviral activity against Hepatitis C virus isolated from PBMC of infected patient assessed as disappearance of (+) and or (-) strands of viral RNA at 0.108 uM after 96 hr by qualitative RT-PCR analysis; type: functional, organism-based; conditions: Hepacivirus hominis
Hepatitis C virus [14] = experiment: Antiviral activity against Hepatitis C virus infected HepG2 cells assessed as disappearance of (+) and or (-) strands of viral RNA at 0.108 uM after 96 hr by qualitative RT-PCR analysis; type: functional, organism-based; conditions: Hepacivirus hominis
Hepatitis C virus [15] = experiment: Antiviral activity against Hepatitis C virus infected HepG2 cells assessed as disappearance of (+) and or (-) strands of viral RNA at 0.077 uM after 96 hr by qualitative RT-PCR analysis; type: functional, organism-based; conditions: Hepacivirus hominis
Hepatitis C virus [16] = experiment: Antiviral activity against Hepatitis C virus isolated from PBMC of infected patient assessed as disappearance of (+) and or (-) strands of viral RNA at 0.077 uM after 96 hr by qualitative RT-PCR analysis; type: functional, organism-based; conditions: Hepacivirus hominis
Hepatitis C virus [17] = experiment: Antiviral activity against Hepatitis C virus isolated from PBMC of infected patient assessed as disappearance of (+) and or (-) strands of viral RNA at 0.30 uM after 96 hr by qualitative RT-PCR analysis; type: functional, organism-based; conditions: Hepacivirus hominis
Hepatitis C virus [18] = experiment: Antiviral activity against Hepatitis C virus infected HepG2 cells assessed as disappearance of (+) and or (-) strands of viral RNA at 0.30 uM after 96 hr by qualitative RT-PCR analysis; type: functional, organism-based; conditions: Hepacivirus hominis
Hepatitis C virus [19] = experiment: Antiviral activity against Hepatitis C virus isolated from PBMC of infected patient assessed as disappearance of (+) and or (-) strands of viral RNA at 0.312 uM after 96 hr by qualitative RT-PCR analysis; type: functional, organism-based; conditions: Hepacivirus hominis
HepG2 [20] = experiment: Anticancer activity against Homo sapiens (human) HepG2 cells assessed as growth inhibition after 48 hr by SRB assay; type: functional, cell-based; conditions: HepG2, 48 h
Hepatitis C virus [21] = experiment: Antiviral activity against Hepatitis C virus infected in HepG2 cells assessed as disappearance of (+) and or (-) strands of viral RNA at 0.312 uM after 96 hr by qualitative RT-PCR analysis; type: functional, organism-based; conditions: Hepacivirus hominis
Hepatitis C virus [22] = experiment: Antiviral activity against Hepatitis C virus infected HepG2 cells assessed as disappearance of (+) and or (-) strands of viral RNA at 0.295 uM after 96 hr by qualitative RT-PCR analysis; type: functional, organism-based; conditions: Hepacivirus hominis
Hepatitis C virus [23] = experiment: Antiviral activity against Hepatitis C virus isolated from PBMC of infected patient assessed as disappearance of (+) and or (-) strands of viral RNA at 0.295 uM after 96 hr by qualitative RT-PCR analysis; type: functional, organism-based; conditions: Hepacivirus hominis
Hepatitis C virus [24] = experiment: Antiviral activity against Hepatitis C virus infected in HepG2 cells assessed as disappearance of (+) and or (-) strands of viral RNA at 0.394 uM after 96 hr by qualitative RT-PCR analysis; type: functional, organism-based; conditions: Hepacivirus hominis
Hepatitis C virus [25] = experiment: Antiviral activity against Hepatitis C virus isolated from PBMC of infected patient assessed as disappearance of (+) and or (-) strands of viral RNA at 0.394 uM after 96 hr by qualitative RT-PCR analysis; type: functional, organism-based; conditions: Hepacivirus hominis
Hepatitis C virus [26] = experiment: Antiviral activity against Hepatitis C virus infected HepG2 cells assessed as disappearance of (+) and or (-) strands of viral RNA at 0.078 uM after 96 hr by qualitative RT-PCR analysis; type: functional, organism-based; conditions: Hepacivirus hominis
Hepatitis C virus [27] = experiment: Antiviral activity against Hepatitis C virus isolated from PBMC of infected patient assessed as disappearance of (+) and or (-) strands of viral RNA at 0.078 uM after 96 hr by qualitative RT-PCR analysis; type: functional, organism-based; conditions: Hepacivirus hominis
HCT-116 [28] = experiment: Anticancer activity against Homo sapiens (human) HCT116 cells assessed as growth inhibition after 48 hr by SRB assay; type: functional, cell-based; conditions: HCT-116, 48 h

Row | pIC50 (MCF7 [1]) | Structure (SMILES) | pIC50 [3] | Activity (Blood) | growth at 100 µM (MCF7 [6]) [%] | growth at 100 µM (HepG2 [7]) [%] | growth at 100 µM (HCT-116 [8]) [%] | further results
1 | 4.46 | O=C1/C(=C/c2ccccc2)SC(=S)N1Cc1nc2ccccc2[nH]1 |  |  |  |  |  | 
2 |  | O=C1NC(=O)/C(=C/c2ccccc2O)S1 |  |  |  |  |  | pIC50 [2]: 5.96
3 |  | O=C1/C(=N\Nc2ccc(S(=O)(=O)Nc3ncccn3)cc2)SC(=S)N1Cc1nc2ccccc2[nH]1 | 4.51 | Non-toxic |  |  |  | Activity (Hepatitis C virus [4]): inactive; Activity (Hepatitis C virus [5]): inactive
4 |  | COc1ccc(/C=C2/S/C(=N\c3ccccc3)N(Cc3nc4ccccc4[nH]3)C2=O)c(OC)c1 |  |  | -1.19 | 18.4 | 15.5 | 
5 |  | O=C1/C(=C\c2ccc(Cl)cc2)S/C(=N\c2ccccc2)N1Cc1nc2ccccc2[nH]1 | 4.49 | Non-toxic |  |  |  | Activity (Hepatitis C virus [9]): inactive; Activity (Hepatitis C virus [10]): inactive
6 | 4.45 | O=C1Nc2ccccc2/C1=C1/SC(=S)N(Cc2nc3ccccc3[nH]2)C1=O | 4.25 | Non-toxic |  |  |  | Activity (Hepatitis C virus [11]): inactive; Activity (Hepatitis C virus [12]): inactive
7 | 4.33 | COc1ccc(/C=C2\SC(=S)N(Cc3nc4ccccc4[nH]3)C2=O)cc1 | 4.27 | Non-toxic | -5.75 | 11.8 | 16.2 | Activity (Hepatitis C virus [13]): inactive; Activity (Hepatitis C virus [14]): inactive
8 | 4.46 | O=C1/C(=C\c2ccccc2Cl)S/C(=N\c2ccccc2)N1Cc1nc2ccccc2[nH]1 |  |  | -1.74 | 18.9 | 13.8 | 
9 | 4.56 | COc1ccc(OC)c(/C=C2\SC(=S)N(Cc3nc4ccccc4[nH]3)C2=O)c1 | 4.41 | Non-toxic | -2.27 | 18.6 | 20.8 | Activity (Hepatitis C virus [15]): inactive; Activity (Hepatitis C virus [16]): inactive
10 |  | CC(=O)NS(=O)(=O)c1ccc(N/N=C2/SC(=S)N(Cc3nc4ccccc4[nH]3)C2=O)cc1 | 4.82 | Non-toxic |  |  |  | Activity (Hepatitis C virus [17]): inactive; Activity (Hepatitis C virus [18]): inactive
11 |  | O=C1Nc2ccccc2/C1=C1/S/C(=N\c2ccccc2)N(Cc2nc3ccccc3[nH]2)C1=O | 4.81 | Non-toxic |  |  |  | Activity (Hepatitis C virus [19]): inactive; pIC50 (MCF7 [6]): 5.15; pIC50 (HepG2 [7]): 5.17; pIC50 (HepG2 [20]): 5.23; pIC50 (HCT-116 [8]): 4.79; Activity (Hepatitis C virus [21]): inactive
12 |  | CN(C)c1ccc(/C=C2\SC(=S)N(Cc3nc4ccccc4[nH]3)C2=O)cc1 | 4.83 | Non-toxic |  |  |  | Activity (Hepatitis C virus [22]): inactive; Activity (Hepatitis C virus [23]): inactive
13 |  | Cc1ccc(/N=C2\S/C(=C\c3ccc(Cl)cc3)C(=O)N2Cc2nc3ccccc3[nH]2)cc1 | 4.71 | Non-toxic |  |  |  | Activity (Hepatitis C virus [24]): inactive; Activity (Hepatitis C virus [25]): inactive
14 | 4.43 | O=C1/C(=C/C=C/c2ccccc2)SC(=S)N1Cc1nc2ccccc2[nH]1 |  |  | -3.93 | 14.2 | 21.2 | 
15 | 4.41 | O=C1/C(=C/c2ccc([N+](=O)[O-])cc2)SC(=S)N1Cc1nc2ccccc2[nH]1 | 4.40 | Non-toxic |  |  |  | Activity (Hepatitis C virus [26]): inactive; Activity (Hepatitis C virus [27]): inactive
16 | 4.40 | O=C1/C(=C/c2ccccc2Cl)SC(=S)N1Cc1nc2ccccc2[nH]1 |  |  | -4.32 | 9.07 | 27.6 | 
17 |  | O=C1/C(=C\c2ccccc2)S/C(=N\c2ccccc2)N1Cc1nc2ccccc2[nH]1 |  |  | -0.69 | 24.4 | 7 | pIC50 (HCT-116 [28]): 5.14
18 |  | COc1ccc(/C=C2\SC(=S)N(Cc3nc4ccccc4[nH]3)C2=O)c(OC)c1 |  |  | 0.34 | 17.8 | 19.2 | 
19 |  | O=C1/C(=C\c2ccc([N+](=O)[O-])cc2)S/C(=N\c2ccccc2)N1Cc1nc2ccccc2[nH]1 |  |  | -0.79 | 24 | 18 | 
